From ChEMBL document CHEMBL4482311, “Modulators of Prostate-Specific G-Protein Receptor (PSGR/OR51E2) and Methods of Using Same” (2018)
Activity calls are given as the source filed them.

Legend:
Assay type in all cases: cell-based
[1] = biological target: T1, Olfactory receptor 51E2 (Homo sapiens) (UniProt Q9H255); assay: Agonist activity at PSGR/OR51E2 in human LNCaP cells assessed as induction of change in extracellular metabolites level by measuring xanthine level at 250 uM incubated for 72 hrs by GC/MS analysis
T1 sequence (whole entry): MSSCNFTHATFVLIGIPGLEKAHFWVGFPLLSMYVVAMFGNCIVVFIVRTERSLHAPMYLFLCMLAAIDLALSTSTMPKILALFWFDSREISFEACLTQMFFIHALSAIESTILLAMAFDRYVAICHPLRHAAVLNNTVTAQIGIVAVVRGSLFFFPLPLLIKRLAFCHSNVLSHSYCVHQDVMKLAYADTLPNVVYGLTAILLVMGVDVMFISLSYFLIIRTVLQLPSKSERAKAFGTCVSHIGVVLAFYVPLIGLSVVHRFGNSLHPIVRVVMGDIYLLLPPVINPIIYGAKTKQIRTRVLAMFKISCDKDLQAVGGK

[2] = biological target: T1, Olfactory receptor 51E2 (Homo sapiens); assay: Agonist activity at PSGR/OR51E2 in human LNCaP cells assessed as induction of change in extracellular metabolites level by measuring threose/erythrose level at 250 uM incubated for 72 hrs by GC/MS analysis
[3] = biological target: T1, Olfactory receptor 51E2 (Homo sapiens); assay: Agonist activity at PSGR/OR51E2 in human LNCaP cells assessed as induction of change in extracellular metabolites level by measuring asparagine level at 250 uM incubated for 72 hrs by GC/MS analysis
[4] = biological target: T1, Olfactory receptor 51E2 (Homo sapiens); assay: Agonist activity at PSGR/OR51E2 in human LNCaP cells assessed as induction of change in intracellular metabolites level by measuring threonine level at 250 uM incubated for 72 hrs by GC/MS analysis
[5] = biological target: T1, Olfactory receptor 51E2 (Homo sapiens); assay: Agonist activity at PSGR/OR51E2 in human LNCaP cells assessed as induction of change in intracellular metabolites level by measuring lactic acid level at 250 uM incubated for 72 hrs by GC/MS analysis
[6] = biological target: T1, Olfactory receptor 51E2 (Homo sapiens); assay: Agonist activity at PSGR/OR51E2 in human LNCaP cells assessed as induction of change in intracellular metabolites level by measuring glucose-6-phosphate level at 250 uM incubated for 72 hrs by GC/MS analysis
[7] = biological target: T1, Olfactory receptor 51E2 (Homo sapiens); assay: Agonist activity at PSGR/OR51E2 in human LNCaP cells assessed as induction of change in extracellular metabolites level by measuring cystine level at 250 uM incubated for 72 hrs by GC/MS analysis
[8] = biological target: T1, Olfactory receptor 51E2 (Homo sapiens); assay: Agonist activity at PSGR/OR51E2 in human LNCaP cells assessed as induction of change in extracellular metabolites level by measuring glycine level at 250 uM incubated for 72 hrs by GC/MS analysis
[9] = biological target: T1, Olfactory receptor 51E2 (Homo sapiens); assay: Agonist activity at PSGR/OR51E2 in human LNCaP cells assessed as induction of change in extracellular metabolites level by measuring guanine level at 250 uM incubated for 72 hrs by GC/MS analysis
[10] = biological target: T1, Olfactory receptor 51E2 (Homo sapiens); assay: Agonist activity at PSGR/OR51E2 in human LNCaP cells assessed as induction of change in intracellular metabolites level by measuring malic acid level at 250 uM incubated for 72 hrs by GC/MS analysis
[11] = biological target: T1, Olfactory receptor 51E2 (Homo sapiens); assay: Agonist activity at PSGR/OR51E2 in human LNCaP cells assessed as induction of change in intracellular metabolites level by measuring serine level at 250 uM incubated for 72 hrs by GC/MS analysis
[12] = biological target: T1, Olfactory receptor 51E2 (Homo sapiens); assay: Agonist activity at PSGR/OR51E2 in human LNCaP cells assessed as induction of change in extracellular metabolites level by measuring tyrosine level at 250 uM incubated for 72 hrs by GC/MS analysis
[13] = biological target: T1, Olfactory receptor 51E2 (Homo sapiens); assay: Agonist activity at PSGR/OR51E2 in human LNCaP cells assessed as induction of change in intracellular metabolites level by measuring ornithine level at 250 uM incubated for 72 hrs by GC/MS analysis
[14] = biological target: T1, Olfactory receptor 51E2 (Homo sapiens); assay: Agonist activity at PSGR/OR51E2 in human LNCaP cells assessed as induction of change in intracellular metabolites level by measuring 3-phosphoglyceric acid level at 250 uM incubated for 72 hrs by GC/MS analysis
[15] = biological target: T1, Olfactory receptor 51E2 (Homo sapiens); assay: Agonist activity at PSGR/OR51E2 in human LNCaP cells assessed as induction of change in extracellular metabolites level by measuring phenylalanine level at 250 uM incubated for 72 hrs by GC/MS analysis
[16] = biological target: T1, Olfactory receptor 51E2 (Homo sapiens); assay: Agonist activity at PSGR/OR51E2 in human LNCaP cells assessed as induction of change in intracellular metabolites level by measuring O-methylphosphate level at 250 uM incubated for 72 hrs by GC/MS analysis
[17] = biological target: T1, Olfactory receptor 51E2 (Homo sapiens); assay: Agonist activity at PSGR/OR51E2 in human LNCaP cells assessed as induction of change in intracellular metabolites level by measuring spermidine level at 250 uM incubated for 72 hrs by GC/MS analysis
[18] = biological target: T1, Olfactory receptor 51E2 (Homo sapiens); assay: Agonist activity at PSGR/OR51E2 in human LNCaP cells assessed as induction of change in extracellular metabolites level by measuring lysine level at 250 uM incubated for 72 hrs by GC/MS analysis
[19] = biological target: T1, Olfactory receptor 51E2 (Homo sapiens); assay: Agonist activity at PSGR/OR51E2 in human LNCaP cells assessed as induction of change in intracellular metabolites level by measuring fumaric acid level at 250 uM incubated for 72 hrs by GC/MS analysis
[20] = biological target: T1, Olfactory receptor 51E2 (Homo sapiens); assay: Agonist activity at PSGR/OR51E2 in human LNCaP cells assessed as induction of change in intracellular metabolites level by measuring inosine level at 250 uM incubated for 72 hrs by GC/MS analysis
[21] = biological target: T1, Olfactory receptor 51E2 (Homo sapiens); assay: Agonist activity at PSGR/OR51E2 in human LNCaP cells assessed as induction of change in extracellular metabolites level by measuring lactic acid level at 250 uM incubated for 72 hrs by GC/MS analysis
[22] = biological target: T1, Olfactory receptor 51E2 (Homo sapiens); assay: Agonist activity at PSGR/OR51E2 in human LNCaP cells assessed as induction of change in intracellular metabolites level by measuring ethanolamine level at 250 uM incubated for 72 hrs by GC/MS analysis
[23] = biological target: T1, Olfactory receptor 51E2 (Homo sapiens); assay: Agonist activity at PSGR/OR51E2 in human LNCaP cells assessed as induction of change in extracellular metabolites level by measuring uric acid level at 250 uM incubated for 72 hrs by GC/MS analysis
[24] = biological target: T1, Olfactory receptor 51E2 (Homo sapiens); assay: Agonist activity at PSGR/OR51E2 in human LNCaP cells assessed as induction of change in extracellular metabolites level by measuring glutaric acid level at 250 uM incubated for 72 hrs by GC/MS analysis
[25] = biological target: T1, Olfactory receptor 51E2 (Homo sapiens); assay: Agonist activity at PSGR/OR51E2 in human LNCaP cells assessed as induction of change in intracellular metabolites level by measuring pentonic-acids level at 250 uM incubated for 72 hrs by GC/MS analysis
[26] = biological target: T1, Olfactory receptor 51E2 (Homo sapiens); assay: Agonist activity at PSGR/OR51E2 in human LNCaP cells assessed as induction of change in extracellular metabolites level by measuring glutamine level at 250 uM incubated for 72 hrs by GC/MS analysis
[27] = biological target: T1, Olfactory receptor 51E2 (Homo sapiens); assay: Agonist activity at PSGR/OR51E2 in human LNCaP cells assessed as induction of change in extracellular metabolites level by measuring serine level at 250 uM incubated for 72 hrs by GC/MS analysis
[28] = biological target: T1, Olfactory receptor 51E2 (Homo sapiens); assay: Agonist activity at PSGR/OR51E2 in human LNCaP cells assessed as induction of change in extracellular metabolites level by measuring alanine level at 250 uM incubated for 72 hrs by GC/MS analysis
[29] = biological target: T1, Olfactory receptor 51E2 (Homo sapiens); assay: Agonist activity at PSGR/OR51E2 in human LNCaP cells assessed as induction of change in intracellular metabolites level by measuring beta-alanine level at 250 uM incubated for 72 hrs by GC/MS analysis
[30] = biological target: T1, Olfactory receptor 51E2 (Homo sapiens); assay: Agonist activity at PSGR/OR51E2 in human LNCaP cells assessed as induction of change in intracellular metabolites level by measuring oleic acid level at 250 uM incubated for 72 hrs by GC/MS analysis

Measured: Activity

COc1ccc(NC=O)c(C(=O)CCNC(C)=O)c1
active: all assays above
